This series deals with Zebrafish wild-type (WT) embryos. Description: Absorption (internal concentration) of cephalosporins in zebrafish embryos by LC-MS/MS. To be noted: 6 hpf-3 dpf; for k-value (slope of the dose-internal concentration linear regression): zebrafish embryos, 0.28, 1.0 and 2.0 mM, higher k = more readily absorbed. On the procedure:
Zebrafish (Danio rerio) were fed at the Institute of Medicinal Biotechnology, Beijing Union Medical College, Beijing, China. […] Zebrafish wild-type (WT) embryos (n = 30) at 6 h post-fertilization (6 hpf) were used. After immersing the embryos in 2 mL of each drug solution (Drugs were dissolved in breeding water), they were incubated in a 20 mm dish for 3 days. […] The zebrafish bodies were collected at 3 days post-fertilization (dpf). The blank controls were zebrafish WT embryos (n = 30) that were incubated in breeding water.
Using a cell strainer (100 μm, BD-Falcon, United States), zebrafish bodies (30 in each dish) were washed five times with deionized water. Zebrafish bodies were triturated in 100 μL of deionized water, and then they were homogenized for 1 min. Zebrafish homogenate (50 μL) and internal standard (IS) working solution (10 μL) were individually transferred into a 1.5-mL microcentrifuge tube. Then, 200 μL of 1% formic acid-methanol solution was added into the tube. The samples were vortexed for 20 s. To precipitate proteins, the samples were centrifuged at 10,800 g for 10 min. The resultant supernatant (10 μL) was injected into LC-MS/MS for analysis.
The LC-MS/MS technique was performed by combining a 20A LC (Shimadzu, Kyoto, Japan) and a 6500 Q-Trap mass spectrometer (AB Sciex, Foster City, CA, United States), which was equipped with an electrospray ionization (ESI) source. Moreover, LC separations were performed on a reversed-phase ACE C18 column (5 cm × 2.1 mm ID, 3 μm particle size, Advanced Chromatography Technologies, Aberdeen, United Kingdom), which was attached to a corresponding guard column (1 cm × 2.1 mm ID, 3 μm particle size; Advanced Chromatography Technologies, United Kingdom). The mobile phase comprised of 5 mM ammonium formate (pH = 3.5) (solvent A) and acetonitrile (solvent B). The composition of the gradient was as follows: 2% solvent B for the first 0.1 min; 3.5 min, 90% solvent B; 6.0 min, 90% solvent B; 6.1 min, 2% solvent B; and 10 min, 2% solvent B. Mass spectrometric analysis was performed in a positive mode. Ion-spray voltage was set at 5000 V, and source temperature was kept fixed at 500°C. Curtain gas, gas 1, and gas 2 were 25, 40, and 40 psi, respectively. Multiple reaction monitoring (MRM) scan was used for the quantification of 19 analytes. In this scan, we determined the most intense product ion (PI) of each analyte. The entrance potential (EP) of all analytes was 10 eV. For each ion transition, dwell time and pause time were set to 30 and 5 ms, respectively. The Analyst 1.6.2 software (AB Sciex, Foster City, CA, United States) was used to perform data acquisition and analysis.
Dose-internal concentration curves were constructed by linear regression analysis. The slope of each linear regression was defined as k-value for each drug. […] The entire data set was split into the training set and test set by a random index, which was operated by DS4.0 software. The training set percentage was set at 80.
Using the aforementioned method, we analyzed the internal concentrations of cephalosporins in zebrafish. […] The calibration samples and administration samples were processed in a timely manner. The internal concentration of each cephalosporin in the zebrafish was calculated by using the corresponding calibration curve (Table 2). […] Dose-internal concentration curves were constructed by linear regression analysis (Figure 1). For each drug, the slope of each linear regression was defined as k-value. This parameter was used to evaluate the absorption capacity of each drug.

[1] abbreviates: zebrafish embryos exposed to 0.28 mM drug solution.
Where [2] appears, read: zebrafish embryos exposed to 1 mM drug solution.
Where [3] appears, read: zebrafish embryos exposed to 2 mM drug solution.

Structures are written as SMILES.

For `O=C(Cn1cnnn1)N[C@@H]1C(=O)N2C(C(=O)O)=C(CSc3nncs3)CS[C@H]12` [Ceftezole], the “k-value (slope of the dose-internal concentration linear regression)” value is 5.2798. The Internal concentration under setting [1] was 3.95 mM × 10^-5. Moreover, under setting [2], the Internal concentration is listed as 7.08 mM × 10^-5. Under setting [3], this molecule gave an Internal concentration of 12.96 mM × 10^-5. In addition, for the setting “listed as ceftezole”, the “k-value (slope of the dose-internal concentration linear regression)” value is reported as above 5.
Consider `CO/N=C(\C(=O)N[C@@H]1C(=O)N2C(C(=O)O)=CCS[C@H]12)c1csc(N)n1` [Ceftizoxime], for which the “k-value (slope of the dose-internal concentration linear regression)” value is recorded as 7.1156. Also, the Internal concentration under setting [1] is listed as 1.17 mM × 10^-5. For the same molecule, the Internal concentration under setting [2] was found to be 3.70 mM × 10^-5. The molecule also displayed an Internal concentration under setting [3] of 13.15 mM × 10^-5. For the same molecule, where the note is “listed as ceftizoxime”, the “k-value (slope of the dose-internal concentration linear regression)” value is given as above 5.
`CC(C)(O/N=C(\C(=O)N[C@@H]1C(=O)N2C(C(=O)[O-])=C(C[n+]3ccccc3)CS[C@H]12)c1csc(N)n1)C(=O)O` [Ceftazidime]: the “k-value (slope of the dose-internal concentration linear regression)” value is on record as 3.1702. This molecule also displayed an Internal concentration under setting [1] of 0.00 mM × 10^-5. In addition, under setting [2], the Internal concentration stood at 2.45 mM × 10^-5. Under setting [3], this molecule registered an Internal concentration of 5.47 mM × 10^-5. The “k-value (slope of the dose-internal concentration linear regression)” value (listed as ceftazidime) was below 5.
Take `CN(C)CCn1nnnc1SCC1=C(C(=O)O)N2C(=O)[C@@H](NC(=O)Cc3csc(N)n3)[C@H]2SC1` [Cefotiam]: the “k-value (slope of the dose-internal concentration linear regression)” value is listed as 2.0488. The Internal concentration under setting [1] is 0.25 mM × 10^-5. Under setting [2], this molecule registered an Internal concentration of 1.31 mM × 10^-5. Moreover, the Internal concentration under setting [3] was found to be 3.73 mM × 10^-5. For the same molecule, the “k-value (slope of the dose-internal concentration linear regression)” value (listed as cefotiam) was below 5.
As for `CC1=C(C(=O)O)N2C(=O)[C@@H](NC(=O)[C@H](N)c3ccccc3)[C@H]2SC1` [Cefalexin], the “k-value (slope of the dose-internal concentration linear regression)” value came out at 9.3280. Under setting [1], this molecule displayed an Internal concentration of 1.01 mM × 10^-5. Under setting [2], this molecule gave an Internal concentration of 5.48 mM × 10^-5. The Internal concentration under setting [3] is reported as 16.83 mM × 10^-5.
`Cc1nnc(SCC2=C(C(=O)O)N3C(=O)[C@@H](NC(=O)Cn4cnnn4)[C@H]3SC2)s1` [Cefazolin]: the “k-value (slope of the dose-internal concentration linear regression)” value was 3.0851. Under setting [1], this molecule returned an Internal concentration of 8.56 mM × 10^-5. Moreover, the Internal concentration under setting [2] came to 13.95 mM × 10^-5. The molecule further had an Internal concentration under setting [3] of 14.19 mM × 10^-5. Where the note is “listed as cefazolin”, the “k-value (slope of the dose-internal concentration linear regression)” value is below 5.
Take `CC1=C(C(=O)O)N2C(=O)[C@@H](NC(=O)[C@H](N)c3ccc(O)cc3)[C@H]2SC1` [Cefadroxil]: the “k-value (slope of the dose-internal concentration linear regression)” value was 6.4617. Further, under setting [1], the Internal concentration is reported as 1.32 mM × 10^-5. Under setting [2], this molecule displayed an Internal concentration of 7.07 mM × 10^-5. Besides, the Internal concentration under setting [3] was 12.55 mM × 10^-5. For the same molecule, the “k-value (slope of the dose-internal concentration linear regression)” value (listed as cefadroxil) is given as above 5.
In the case of `CO/N=C(\C(=O)N[C@@H]1C(=O)N2C(C(=O)O)=C(COC(N)=O)CS[C@H]12)c1ccco1` [Cefuroxime], the “k-value (slope of the dose-internal concentration linear regression)” value was determined as 2.3643. The same molecule gave an Internal concentration under setting [1] of 0.68 mM × 10^-5. Moreover, the Internal concentration under setting [2] is 1.55 mM × 10^-5. The molecule further returned an Internal concentration under setting [3] of 4.66 mM × 10^-5. In addition, the “k-value (slope of the dose-internal concentration linear regression)” value (listed as cefuroxime) is reported as below 5.
As for `CC1=C(C(=O)O)N2C(=O)[C@@H](NC(=O)[C@H](N)C3=CCC=CC3)[C@H]2SC1` [Cefradine], the “k-value (slope of the dose-internal concentration linear regression)” value amounted to 9.8110. Besides, the Internal concentration under setting [1] is reported as 3.15 mM × 10^-5. Under setting [2], this molecule came in with an Internal concentration of 8.93 mM × 10^-5. Under setting [3], this molecule registered an Internal concentration of 19.89 mM × 10^-5. Moreover, the “k-value (slope of the dose-internal concentration linear regression)” value (listed as cefradine) was above 5.
Consider `CCN1CCN(C(=O)N[C@@H](C(=O)N[C@@H]2C(=O)N3C(C(=O)O)=C(CSc4nnnn4C)CS[C@H]23)c2ccc(O)cc2)C(=O)C1=O` [Cefoperazone], for which the “k-value (slope of the dose-internal concentration linear regression)” value is 6.5063. This molecule also returned an Internal concentration under setting [1] of 1.30 mM × 10^-5. This molecule also showed an Internal concentration under setting [2] of 5.75 mM × 10^-5. The molecule also gave an Internal concentration under setting [3] of 12.47 mM × 10^-5. The “k-value (slope of the dose-internal concentration linear regression)” value (listed as cefoperazone) is above 5.
For the molecule `CO/N=C(\C(=O)N[C@@H]1C(=O)N2C(C(=O)O)=C(COC(C)=O)CS[C@H]12)c1csc(N)n1` [Cefotaxime], the Internal concentration is given as 0.27 mM × 10^-5 under setting [1], 0.75 mM × 10^-5 under setting [2] and 0.82 mM × 10^-5 under setting [3].
For the molecule `CC(=O)OCC1=C(C(=O)O)N2C(=O)[C@@H](NC(=O)CSC(=NC(C)C)NC(C)C)[C@H]2SC1` [Cefathiamidine], the “k-value (slope of the dose-internal concentration linear regression)” value came to 0.6439. The Internal concentration under setting [1] is on record as 0.49 mM × 10^-5. The molecule also had an Internal concentration under setting [2] of 1.29 mM × 10^-5. Further, the Internal concentration under setting [3] is listed as 1.63 mM × 10^-5. Also, the “k-value (slope of the dose-internal concentration linear regression)” value (listed as cefathiamidine) was below 5.
Regarding `CO/N=C(\C(=O)N[C@@H]1C(=O)N2C(C(=O)[O-])=C(C[n+]3cccc4c3CCC4)CS[C@H]12)c1csc(N)n1` [Cefpirome], the “k-value (slope of the dose-internal concentration linear regression)” value is below 5. The Internal concentration under setting [1] came out at 0.21 mM × 10^-5. In addition, the Internal concentration under setting [2] worked out at 0.86 mM × 10^-5. In addition, the Internal concentration under setting [3] was 1.67 mM × 10^-5.
In the case of `CO[C@@]1(NC(=O)CSC(F)F)C(=O)N2C(C(=O)O)=C(CSc3nnnn3CCO)CO[C@@H]21` [Flomoxef], the “k-value (slope of the dose-internal concentration linear regression)” value is 5.9111. The molecule also came in with an Internal concentration under setting [1] of 1.07 mM × 10^-5. In addition, under setting [2], the Internal concentration came to 8.30 mM × 10^-5. This molecule also yielded an Internal concentration under setting [3] of 11.54 mM × 10^-5. Moreover, the “k-value (slope of the dose-internal concentration linear regression)” value (listed as flomoxef) is given as above 5.
On to `CO/N=C(\C(=O)N[C@@H]1C(=O)N2C(C(=O)O)=C(CSc3nnnn3C)CS[C@H]12)c1csc(N)n1` [Cefmenoxime], for which the “k-value (slope of the dose-internal concentration linear regression)” value was 0.6493. The molecule also returned an Internal concentration under setting [1] of 0.00 mM × 10^-5. This molecule had an Internal concentration under setting [2] of 0.71 mM × 10^-5. Under setting [3], this molecule showed an Internal concentration of 1.14 mM × 10^-5. Also, the “k-value (slope of the dose-internal concentration linear regression)” value (listed as cefmenoxime) is listed as below 5.
As for `CO[C@@]1(NC(=O)Cc2cccs2)C(=O)N2C(C(=O)O)=C(COC(N)=O)CS[C@@H]21` [Cefoxitin], the “k-value (slope of the dose-internal concentration linear regression)” value amounted to 9.1638. Moreover, the Internal concentration under setting [1] is reported as 2.22 mM × 10^-5. The Internal concentration under setting [2] was 12.73 mM × 10^-5. Also, the Internal concentration under setting [3] came out at 18.39 mM × 10^-5. For the same molecule, for the setting “listed as cefoxitin”, the “k-value (slope of the dose-internal concentration linear regression)” value is above 5.

For the origin of these results see publication PMC6361752, “Construction of a Quantitative Structure Activity Relationship (QSAR) Model to Predict the Absorption of Cephalosporins in Zebrafish for Toxicity Study” (Frontiers in Pharmacology, 2019).
